According to US7781468B2, “Tyrosine derivatives substituted by N-arylacryloyl as agonists of hPPAR alpha and/or hPPAR gamma” (Beijing Molecule Science Technology Co., Ltd., priority 2004, dated 2010):

Legend:
Human PPARγ = target: T1, Human PPARγ (Homo sapiens, UniProt P37231); assay: Activity assay on activating human PPARγ (GAL4 chimeric receptor luciferase reporter, transient transfection in 293-T cells); format: cell-based; settings: for Photon number (×10^4) / Increased multiple vs control: compound 10 μM; for Photon number (×10^4): luciferase measured 24 h after administration, control 1.4; for Increased multiple vs control: vs 0.2‰ DMSO blank control; for EC50: activation of PPARγ
T1 construct: expressed in transfected cells; host or cells: 293-T cells
T1 sequence (P37231 238-503 limits assumed): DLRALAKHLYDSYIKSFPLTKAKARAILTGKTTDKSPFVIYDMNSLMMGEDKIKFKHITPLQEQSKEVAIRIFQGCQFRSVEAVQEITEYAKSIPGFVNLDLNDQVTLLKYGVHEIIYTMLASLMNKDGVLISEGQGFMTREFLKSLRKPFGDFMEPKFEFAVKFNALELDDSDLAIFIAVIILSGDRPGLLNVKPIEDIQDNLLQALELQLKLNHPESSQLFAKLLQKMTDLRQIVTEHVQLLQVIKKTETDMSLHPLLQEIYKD
Method: (§1) The compounds were screened with respect to their functional effect of instantaneous transfection in 293-T cells, so that their capabilities of activating PPAR subtypes were determined. A chimeric receptor system as established in advance was used to compare the influence of receptor subtypes on the transcription activity of same target gene, with Rluc as an internal control to reduce the endogenous influence. Human PPARα and PPARγ ligand-binding domains were fused respectively with yeast transcription factor GAL4 DNA-binding domains, and then linked to expression vector pM of mammal, to thereby construct two plasmids pM-hPPARα/GAL4 and pM-PPARγ/GAL4. GAL4 DNA-binding area was linked to pB4-tk-luc, to thereby construct pB4-RES-tk-luc (a firefly luciferase reporter gene comprising GAL4 DNA-binding site). pRL-CMV-Rluc was used as an internal control to normalize transfection efficiency and endogenous influence.
(§2) 293-T cells were incubated in a 48-well plate at a cell density of 2-4×10^4/well, using a phenol red-free and antibiotic-free 1640 medium containing 10% defatted fetal calf serum (FCS). After culturing for 48 h, the medium was replaced with a phenol red-free and antibiotic-free 1640 medium containing 5% defatted FCS, and then three plasmids pM-hPPAR/GAL4, pB4-RES-tk-luc and pRL-CMV-Rluc pertaining to two subtypes were respectively co-transfected into the 293-T cells. The strength of luciferase was measured at the time of 24 h after administration, with 0.2‰ DMSO as a blank control.

Human PPARα = target: T2, Human PPARα (Homo sapiens, UniProt Q07869); assay: Activity assay on activating human PPARα (GAL4 chimeric receptor luciferase reporter, transient transfection in 293-T cells); format: cell-based; settings: for Photon number (×10^4) / Increased multiple vs control: compound 10 μM; for Photon number (×10^4): luciferase measured 24 h after administration, control 2.1; for Increased multiple vs control: vs 0.2‰ DMSO blank control; for EC50: activation of PPARα
T2 construct: expressed in transfected cells; host or cells: 293-T cells
T2 sequence (Q07869 239-466 limits assumed): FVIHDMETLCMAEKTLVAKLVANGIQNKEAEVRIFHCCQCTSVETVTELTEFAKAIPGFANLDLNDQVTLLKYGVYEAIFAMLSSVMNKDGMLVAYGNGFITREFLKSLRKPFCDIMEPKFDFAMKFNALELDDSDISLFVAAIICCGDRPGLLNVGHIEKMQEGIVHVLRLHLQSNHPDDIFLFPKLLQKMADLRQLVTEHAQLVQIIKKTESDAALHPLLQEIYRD
Method: as §1, §2

Row | SMILES | Photon number (×10^4) (Human PPARγ) | Increased multiple vs control (Human PPARγ) | Photon number (×10^4) (Human PPARα) | Increased multiple vs control (Human PPARα) | EC50 (Human PPARα) [nM] | EC50 (Human PPARγ) [nM] | melting point [°C]
1 | Cc1ccc(C=CC(=O)N[C@@H](Cc2ccc(OCCc3nc(-c4ccccc4)oc3C)c(Br)c2)C(=O)O)cc1 [Example 10, (2S)-3-{3-bromo-4-[2-(5-methyl-2-phenyl-1,3-oxazol-4-yl)-ethoxy]-phenyl}-2-(3-p-tolylacryloylamino)-propanoic acid] | 24.1 ×10^4 | 17.2 | – | – | – | – | –
2 | Cc1oc(-c2ccccc2)nc1CCOc1ccc(C[C@H](NC(=O)C=Cc2ccc(F)c(F)c2)C(=O)O)cc1 [Example 7, (2S)-2-[3-(3,4-difluorophenyl)acryloylamino]-3-{4-[2-(5-methyl-2-phenyl-1,3-oxazol-4-yl)-ethoxy]-phenyl}-propanoic acid] | 29.0 ×10^4 | 20.7 | 8.6 ×10^4 | 4.1 | – | – | –
3 | Cc1oc(-c2ccccc2)nc1CCOc1ccc(C[C@H](NC(=O)C=Cc2ccc(F)cc2F)C(=O)O)cc1 [Example 8, (2S)-2-[3-(2,4-difluorophenyl)-acryloylamino]-3-{4-[2-(5-methyl-2-phenyl-1,3-oxazol-4-yl)-ethoxy]-phenyl}-propanoic acid] | 27.6 ×10^4 | 19.7 | 18.8 ×10^4 | 8.9 | 4970 | 1160 | –
4 | Cc1oc(-c2ccccc2)nc1CCOc1ccc(C[C@H](NC(=O)C=Cc2ccco2)C(=O)O)cc1 [Example 9, (2S)-2-(3-(furan-2-yl)-acryloylamino)-3-{4-[2-(5-methyl-2-phenyl-1,3-oxazol-4-yl)-ethoxy]-phenyl}-propanoic acid] | 23.7 ×10^4 | 16.9 | 9.8 ×10^4 | 4.7 | 770 | 74 | 199 to 201
5 | Cc1oc(-c2ccccc2)nc1CCOc1ccc(C[C@H](NC(=O)C=Cc2ccc(F)cc2)C(=O)O)cc1 [Example 3, (2S)-2-(3-(4-fluorophenyl)acryloylamino)-3-{4-[2-(5-methyl-2-phenyl-1,3-oxazol-4-yl)-ethoxy]-phenyl}-propanoic acid] | – | – | – | – | – | – | 188 to 190
6 | Cc1oc(-c2ccccc2)nc1CCOc1ccc(C[C@H](NC(=O)C=Cc2ccc(F)cc2F)C(=O)O)cc1Br [Example 12, (2S)-3-{3-bromo-4-[2-(5-methyl-2-phenyl-1,3-oxazol-4-yl)-ethoxy]-phenyl}-2-(3-(2,4-difluorophenyl)-acryloylamino)-propanoic acid] | – | – | – | – | – | – | 221 to 223
